Paper PMC5224920, “Assessing the mechanism and therapeutic potential of modulators of the human Mediator complex-associated protein kinases” (eLife, 2016)

Test system: 12 single or co-culture in vitro tissue models of primary cells
Experiment: Culture/co-culture cell model panel, extracellular biomarkers (DiscoveRx); on CCL2/MCP-1: reference of the scale not given here; on CD141/Thrombomodulin: reference of the scale not given here; on CD142/Tissue Factor: reference of the scale not given here; on CXCL8/IL-8: reference of the scale not given here; on CXCL9/MIG: reference of the scale not given here; on M-CSF: reference of the scale not given here; on Proliferation: reference of the scale not given here; on SRB: reference of the scale not given here
Format: cell-based, human

Question: Which results are given for Cc1n[nH]c2ncc(C(=O)N3CCC[C@H]3c3ccc(Cl)cc3)cc12 [CMPD4]?
Answer: CCL2/MCP-1 (3C, 1.00E4 nM): -0.095; CD54/ICAM-1 (3C, 1.00E4 nM): -0.015; CD62E/E-Selectin (3C, 1.00E4 nM): 0.054; CD87/uPAR (3C, 1.00E4 nM): -0.432; CD106/VCAM-1 (3C, 1.00E4 nM): 0.073; CD141/Thrombomodulin (3C, 1.00E4 nM): 0.088; CD142/Tissue Factor (3C, 1.00E4 nM): 0.112; CXCL8/IL-8 (3C, 1.00E4 nM): -0.381; CXCL9/MIG (3C, 1.00E4 nM): -0.030; HLA-DR (3C, 1.00E4 nM): -0.292; Proliferation (3C, 1.00E4 nM): -0.144; SRB (3C, 1.00E4 nM): -0.077; CCL2/MCP-1 (3C, 1.11E3 nM): -0.139; CD54/ICAM-1 (3C, 1.11E3 nM): -0.012; CD62E/E-Selectin (3C, 1.11E3 nM): 0.043; CD87/uPAR (3C, 1.11E3 nM): -0.475; CD106/VCAM-1 (3C, 1.11E3 nM): 0.074; CD141/Thrombomodulin (3C, 1.11E3 nM): 0.143; CD142/Tissue Factor (3C, 1.11E3 nM): 0.111; CXCL8/IL-8 (3C, 1.11E3 nM): -0.399; CXCL9/MIG (3C, 1.11E3 nM): -0.035; HLA-DR (3C, 1.11E3 nM): -0.213; Proliferation (3C, 1.11E3 nM): -0.067; SRB (3C, 1.11E3 nM): -0.088; CCL2/MCP-1 (3C, 1.23E2 nM): -0.155; CD54/ICAM-1 (3C, 1.23E2 nM): -0.013; CD62E/E-Selectin (3C, 1.23E2 nM): 0.033; CD87/uPAR (3C, 1.23E2 nM): -0.463; CD106/VCAM-1 (3C, 1.23E2 nM): 0.092; CD141/Thrombomodulin (3C, 1.23E2 nM): 0.134; CD142/Tissue Factor (3C, 1.23E2 nM): 0.145; CXCL8/IL-8 (3C, 1.23E2 nM): -0.289; CXCL9/MIG (3C, 1.23E2 nM): -0.028; HLA-DR (3C, 1.23E2 nM): -0.216; Proliferation (3C, 1.23E2 nM): -0.036; SRB (3C, 1.23E2 nM): -0.101; CCL2/MCP-1 (3C, 1.37E1 nM): -0.054; CD54/ICAM-1 (3C, 1.37E1 nM): -0.029; CD62E/E-Selectin (3C, 1.37E1 nM): 0.033; CD87/uPAR (3C, 1.37E1 nM): -0.383; CD106/VCAM-1 (3C, 1.37E1 nM): 0.060; CD141/Thrombomodulin (3C, 1.37E1 nM): 0.107; CD142/Tissue Factor (3C, 1.37E1 nM): 0.109; CXCL8/IL-8 (3C, 1.37E1 nM): -0.180; CXCL9/MIG (3C, 1.37E1 nM): -0.010; HLA-DR (3C, 1.37E1 nM): -0.145; Proliferation (3C, 1.37E1 nM): -0.003; SRB (3C, 1.37E1 nM): -0.076; CCL2/MCP-1 (3C, 3.33E3 nM): -0.119; CD54/ICAM-1 (3C, 3.33E3 nM): -0.027; CD62E/E-Selectin (3C, 3.33E3 nM): 0.034; CD87/uPAR (3C, 3.33E3 nM): -0.471; CD106/VCAM-1 (3C, 3.33E3 nM): 0.069; CD141/Thrombomodulin (3C, 3.33E3 nM): 0.129; CD142/Tissue Factor (3C, 3.33E3 nM): 0.128; CXCL8/IL-8 (3C, 3.33E3 nM): -0.412; CXCL9/MIG (3C, 3.33E3 nM): -0.032; HLA-DR (3C, 3.33E3 nM): -0.242; Proliferation (3C, 3.33E3 nM): -0.090; SRB (3C, 3.33E3 nM): -0.073; CCL2/MCP-1 (3C, 3.70E2 nM): -0.153; CD54/ICAM-1 (3C, 3.70E2 nM): -0.078; CD62E/E-Selectin (3C, 3.70E2 nM): 0.052; CD87/uPAR (3C, 3.70E2 nM): -0.455; CD106/VCAM-1 (3C, 3.70E2 nM): 0.094; CD141/Thrombomodulin (3C, 3.70E2 nM): 0.139; CD142/Tissue Factor (3C, 3.70E2 nM): 0.142; CXCL8/IL-8 (3C, 3.70E2 nM): -0.363; CXCL9/MIG (3C, 3.70E2 nM): -0.028; HLA-DR (3C, 3.70E2 nM): -0.210; Proliferation (3C, 3.70E2 nM): -0.026; SRB (3C, 3.70E2 nM): -0.097; CCL2/MCP-1 (3C, 4.12E1 nM): -0.076; CD54/ICAM-1 (3C, 4.12E1 nM): -0.033; CD62E/E-Selectin (3C, 4.12E1 nM): 0.032; CD87/uPAR (3C, 4.12E1 nM): -0.415; CD106/VCAM-1 (3C, 4.12E1 nM): 0.093; CD141/Thrombomodulin (3C, 4.12E1 nM): 0.127; CD142/Tissue Factor (3C, 4.12E1 nM): 0.136; CXCL8/IL-8 (3C, 4.12E1 nM): -0.222; CXCL9/MIG (3C, 4.12E1 nM): -0.007; HLA-DR (3C, 4.12E1 nM): -0.208; Proliferation (3C, 4.12E1 nM): -0.018; SRB (3C, 4.12E1 nM): -0.080; CCL2/MCP-1 (3C, 4.57E0 nM): 0.026; CD54/ICAM-1 (3C, 4.57E0 nM): -0.005; CD62E/E-Selectin (3C, 4.57E0 nM): 0.022; CD87/uPAR (3C, 4.57E0 nM): -0.265; CD106/VCAM-1 (3C, 4.57E0 nM): 0.039; CD141/Thrombomodulin (3C, 4.57E0 nM): 0.096; CD142/Tissue Factor (3C, 4.57E0 nM): 0.092; CXCL8/IL-8 (3C, 4.57E0 nM): -0.109; CXCL9/MIG (3C, 4.57E0 nM): -0.014; HLA-DR (3C, 4.57E0 nM): -0.077; Proliferation (3C, 4.57E0 nM): -0.017; SRB (3C, 4.57E0 nM): -0.052; CCL2/MCP-1 (/HDF3CT, 1.00E4 nM): -0.123; CD54/ICAM-1 (/HDF3CT, 1.00E4 nM): -0.074; CD106/VCAM-1 (/HDF3CT, 1.00E4 nM): 0.00544; CXCL8/IL-8 (/HDF3CT, 1.00E4 nM): -0.159; CXCL9/MIG (/HDF3CT, 1.00E4 nM): -0.043; CXCL10/IP-10 (/HDF3CT, 1.00E4 nM): -0.008; Collagen I (/HDF3CT, 1.00E4 nM): -0.050; M-CSF (/HDF3CT, 1.00E4 nM): -0.035; MMP-1 (/HDF3CT, 1.00E4 nM): -0.057; PAI-I (/HDF3CT, 1.00E4 nM): -0.206; SRB (/HDF3CT, 1.00E4 nM): -0.005; TIMP-2 (/HDF3CT, 1.00E4 nM): 0.00643; CCL2/MCP-1 (/HDF3CT, 1.11E3 nM): -0.116; CD54/ICAM-1 (/HDF3CT, 1.11E3 nM): -0.059; CD106/VCAM-1 (/HDF3CT, 1.11E3 nM): 0.008; CXCL8/IL-8 (/HDF3CT, 1.11E3 nM): -0.199; CXCL9/MIG (/HDF3CT, 1.11E3 nM): -0.051; CXCL10/IP-10 (/HDF3CT, 1.11E3 nM): 0.00172; Collagen I (/HDF3CT, 1.11E3 nM): -0.048; M-CSF (/HDF3CT, 1.11E3 nM): -0.052; MMP-1 (/HDF3CT, 1.11E3 nM): -0.043; PAI-I (/HDF3CT, 1.11E3 nM): -0.122; SRB (/HDF3CT, 1.11E3 nM): 0.010; TIMP-2 (/HDF3CT, 1.11E3 nM): 0.028; CCL2/MCP-1 (/HDF3CT, 1.23E2 nM): -0.004; CD54/ICAM-1 (/HDF3CT, 1.23E2 nM): -0.048; CD106/VCAM-1 (/HDF3CT, 1.23E2 nM): 0.017; CXCL8/IL-8 (/HDF3CT, 1.23E2 nM): -0.167; CXCL9/MIG (/HDF3CT, 1.23E2 nM): -0.040; CXCL10/IP-10 (/HDF3CT, 1.23E2 nM): 0.011; Collagen I (/HDF3CT, 1.23E2 nM): -0.027; M-CSF (/HDF3CT, 1.23E2 nM): -0.051; MMP-1 (/HDF3CT, 1.23E2 nM): 0.00166; PAI-I (/HDF3CT, 1.23E2 nM): -0.00646; SRB (/HDF3CT, 1.23E2 nM): 0.00373; TIMP-2 (/HDF3CT, 1.23E2 nM): 0.061; CCL2/MCP-1 (/HDF3CT, 1.37E1 nM): 0.037; CD54/ICAM-1 (/HDF3CT, 1.37E1 nM): -0.040; CD106/VCAM-1 (/HDF3CT, 1.37E1 nM): 0.019; CXCL8/IL-8 (/HDF3CT, 1.37E1 nM): -0.056; CXCL9/MIG (/HDF3CT, 1.37E1 nM): 0.00152; CXCL10/IP-10 (/HDF3CT, 1.37E1 nM): 0.022; Collagen I (/HDF3CT, 1.37E1 nM): -0.019; M-CSF (/HDF3CT, 1.37E1 nM): -0.071; MMP-1 (/HDF3CT, 1.37E1 nM): 0.083; PAI-I (/HDF3CT, 1.37E1 nM): 0.023; SRB (/HDF3CT, 1.37E1 nM): 0.004; TIMP-2 (/HDF3CT, 1.37E1 nM): 0.069; CCL2/MCP-1 (/HDF3CT, 3.33E3 nM): -0.101; CD54/ICAM-1 (/HDF3CT, 3.33E3 nM): -0.068; CD106/VCAM-1 (/HDF3CT, 3.33E3 nM): 0.005; CXCL8/IL-8 (/HDF3CT, 3.33E3 nM): -0.189; CXCL9/MIG (/HDF3CT, 3.33E3 nM): -0.053; CXCL10/IP-10 (/HDF3CT, 3.33E3 nM): 0.002; Collagen I (/HDF3CT, 3.33E3 nM): -0.071; M-CSF (/HDF3CT, 3.33E3 nM): -0.054; MMP-1 (/HDF3CT, 3.33E3 nM): -0.042; PAI-I (/HDF3CT, 3.33E3 nM): -0.184; SRB (/HDF3CT, 3.33E3 nM): 0.008; TIMP-2 (/HDF3CT, 3.33E3 nM): 0.012; CCL2/MCP-1 (/HDF3CT, 3.70E2 nM): -0.041; CD54/ICAM-1 (/HDF3CT, 3.70E2 nM): -0.059; CD106/VCAM-1 (/HDF3CT, 3.70E2 nM): 0.017; CXCL8/IL-8 (/HDF3CT, 3.70E2 nM): -0.180; CXCL9/MIG (/HDF3CT, 3.70E2 nM): -0.046; CXCL10/IP-10 (/HDF3CT, 3.70E2 nM): 0.00747; Collagen I (/HDF3CT, 3.70E2 nM): -0.040
